Source: PubChem BioAssay (NCI)
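Briefly, cells in 96-well plates were exposed to five compound concentrations for 48 h, and endpoints were estimated by linear interpolation. At the TGI there is no net growth.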

Experiments:
[1] = test system: P388 leukemia; experiment: NCI tumour cell line growth inhibition, 48 h
[2] = test system: P388/ADR leukemia; experiment: NCI tumour cell line growth inhibition, 48 h

With `COc1cccc2c1C(=O)c1c(O)c3c(c(O)c1C2=O)C[C@@](O)(C(=O)CO)C[C@@H]3OC1CC(N)CC(C)O1` (some centres undefined) the TGI [1] was 0.588 µM and the TGI [2] was 2.96 µM.

For `COC(=O)C[C@](O)(CCCC(C)(C)O)C(=O)O[C@@H]1C(OC)=C[C@]23CCCN2CCc2cc4c(cc2[C@H]13)OCO4`, the TGI [1] was 0.0101 µM and the TGI [2] was 1.35 µM.
